Results on 42 molecules are retold here after US8633232B2, “Compounds, compositions and methods of using same for modulating uric acid levels” (Ardea Biosciences, Inc., priority 2008, dated 2014).

The test concerns the target T1, hURAT1 Transporter (Homo sapiens, UniProt Q96S37).
T1 construct: Full-length human URAT1 gene (SLC22A12) was subcloned from plasmid pCMV6-XL5
T1 sequence (Q96S37 1-553): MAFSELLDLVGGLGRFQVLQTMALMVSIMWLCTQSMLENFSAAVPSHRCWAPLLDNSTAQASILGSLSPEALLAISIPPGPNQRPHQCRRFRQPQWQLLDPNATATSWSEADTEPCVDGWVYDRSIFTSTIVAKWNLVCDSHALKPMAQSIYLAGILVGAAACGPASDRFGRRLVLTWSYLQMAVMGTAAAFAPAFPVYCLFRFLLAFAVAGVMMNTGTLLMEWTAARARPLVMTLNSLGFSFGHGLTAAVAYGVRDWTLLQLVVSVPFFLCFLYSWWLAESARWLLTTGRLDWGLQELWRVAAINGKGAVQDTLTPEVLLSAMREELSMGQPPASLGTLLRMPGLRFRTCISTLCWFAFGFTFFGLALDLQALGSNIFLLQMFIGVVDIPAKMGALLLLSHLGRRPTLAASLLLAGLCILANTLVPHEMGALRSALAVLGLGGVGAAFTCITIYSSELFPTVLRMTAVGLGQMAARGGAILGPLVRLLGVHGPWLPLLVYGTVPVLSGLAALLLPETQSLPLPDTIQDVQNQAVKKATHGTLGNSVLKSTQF
Nature of the test: Uric Acid Uptake Assay. Type of test: cell-based. The following applies: HEK293/urat1 cells; C14 Uric Acid 40 μM; 10 minutes at room temperature. From the text:
Creation of Stable Cell Lines Expressing hURAT1 Transporter: Full-length human URAT1 gene (SLC22A12) was subcloned from plasmid pCMV6-XL5 (Origene) into eukaryotic expression plasmid pCMV6/Neo (Origene) using Not I restriction sites. Gene sequencing confirmed the sequence of hURAT1 as outlined in Genbank (Accession #NM_144585.2). HEK293 human embryonic kidney cells (ATCC#CRL-1573) were propagated in EMEM tissue culture medium as described by ATCC in an atmosphere of 5% CO2 and 95% air. Transfections of HEK293 cells with the pCMV6/Neo/URAT1 construct were performed using L2000 transfection reagent (Invitrogen) as described by the manufacturer. After 24 h the transfected cells were split into 10 cm tissue culture plates and grown for 1 day after which the medium was replaced with fresh growth medium containing G418 (Gibco) at 0.5 mg/ml final concentration. Drug-resistant colonies were selected after approximately 8 days and then tested for ^14C-uric acid transport activity. The HEK293/urat1 cells are plated on Poly-D-Lysine Coated 96-well Plates at a density of 75,000 cells per well.
Cells were grown overnight (20-26 hours) at 37° C. in an incubator. Plates were allowed to come to room temperature and media was washed out with one wash of […] of Wash Buffer (125 mM Na Gluconate, 10 mM Hepes ph 7.3). Compound or vehicle is added in assay buffer with C14 Uric Acid for a final concentration of 40 μM Uric Acid with a specific activity of 54 mCi/mmol. Assay Buffer is 125 mM Sodium Gluconate, 4.8 mM Potassium Gluconate, 1.2 mM Potassium phosphate, monobasic, 1.2 mM magnesium sulfate, 1.3 mM Ca Gluconate, 5.6 mM Glucose, 25 mM HEPES, pH 7.3. Plates were incubated at room temperature for 10 minutes then washed 3 times with 50 μl Wash Buffer and 3 times with 250 μl Wash Buffer. Microscint 20 Scintillation Fluid was added and plates were incubated overnight at 45° C. to equilibrate. Plates are then read on the TopCount Plate Reader and an EC50 value generated. (See Enomoto et al, Nature, 2002, 417, 447-451 and Anzai et al, J. Biol. Chem., 2004, 279, 45942-45950.).
Compounds prepared as described herein, were examined according to the procedure described above and EC50 values generated. […] (N/A means data not available).
Usually EC50 stands for the concentration that produces a half-maximal response. A lower EC50 goes with greater potency. Consider `CCOC(=O)CSc1nncn1-c1ccc(C)c2c1CCCN2`, for which the EC50 was greater than 30 µM. `CCOC(=O)CSc1nncn1-c1c(C)cc(C)c2c1CCCC2` returned a concentration for a half-maximal effect (EC50) of 1 to 30 µM. The value for `CCOC(=O)CSc1nncn1-c1ccc(C)c2c1CCCC2` was 1 to 30 µM.

Molecule `Cc1cc(C)c(-n2cnnc2SCC(=O)O)c2c1CCCC2` returned an EC50 greater than 30 µM. As for `Cc1ccc(-n2cnnc2SCC(=O)O)c2c1CCCC2`, the EC50 is greater than 30 µM. As for `Cc1ccc(-n2cnnc2SCC(=O)O)c2c1NCCC2`, the figure is greater than 30 µM; as for `Cc1nnc(SCC(=O)O)n1-c1ccc(N(C)C)c2ccccc12`, greater than 30 µM; as for `Cc1nnc(SCC(=O)O)n1-c1cccc2cccnc12`, greater than 30 µM. As for `Cc1ccc(-n2c(C)nnc2SCC(=O)O)cc1C`, the EC50 is greater than 30 µM. The value for `Cc1nnc(SCC(=O)O)n1-c1ccccc1Cl` was greater than 30 µM; that for `Cc1nnc(SCC(=O)O)n1-c1ccc(Oc2ccccc2)cc1` was greater than 30 µM; that for `Cc1nnc(SCC(=O)O)n1-c1ccc(C(F)(F)F)cc1` was greater than 30 µM. As for `Cc1ccc(-n2c(C)nnc2SCC(=O)O)c(C)c1`, the figure is greater than 30 µM. As for `COc1ccccc1-n1c(C)nnc1SCC(=O)O`, the figure is greater than 30 µM; as for `Cc1cccc(C)c1-n1c(C)nnc1SCC(=O)O`, greater than 30 µM; as for `Cc1nnc(SCC(=O)O)n1-c1cc(Cl)ccc1Cl`, greater than 30 µM.

`Cc1nnc(SCC(=O)O)n1-c1ccc(C(=O)O)cc1` returned an EC50 greater than 30 µM.

On to `Cc1nnc(SCC(=O)O)n1-c1cccc(Cl)c1`, for which the half-maximal effective concentration (EC50) is greater than 30 µM. In turn, `Cc1nnc(SCC(=O)O)n1-c1ccccc1F` returned an EC50 greater than 30 µM. On to `Cc1nnc(SCC(=O)O)n1-c1ccccc1C(F)(F)F`, for which the EC50 is greater than 30 µM. As for `CCOC(=O)CCCSc1nnc(N)n1-c1ccc(C2CC2)c2ccccc12`, the figure is 1 to 30 µM; as for `Nc1nnc(SCCCC(=O)O)n1-c1ccc(C2CC2)c2ccccc12`, 1 to 30 µM; as for `CCOC(=O)CSc1nnc(N)n1-c1ccc(C2CC2)c2ccccc12`, greater than 30 µM. The molecule `Nc1nnc(SCC(=O)O)n1-c1ccc(C2CC2)c2ccccc12` had an EC50 of 1 to 30 µM. `CCOC(=O)C(C)Sc1nnc(N)n1-c1ccc(C2CC2)c2ccccc12` (stereo not drawn) yielded an EC50 of 1 to 30 µM. As to `CC(Sc1nnc(N)n1-c1ccc(C2CC2)c2ccccc12)C(=O)O` (stereo not drawn), the EC50 lay in the range of 1 to 30 µM. As for `CCc1ccc(-n2c(Br)nnc2SC(C)(C)C(=O)O)c2ccccc12` [2-(5-bromo-4-(4-ethylnaphthalen-1-yl)-4H-1,2,4-triazol-3-ylthio)-2-methylpropanoic acid], the figure is 0.001 to 1 µM. As for `Cc1cc(C)c(-n2c(SCC(=O)O)nnc2C(F)(F)F)c2c1CCCC2` [Example 1A, 2-(4-(2,4-Dimethyl-5,6,7,8-tetrahydronaphthalen-1-yl)-5-(trifluoromethyl)-4H-1,2,4-triazol-3-ylthio)acetic acid], the figure is 1 to 30 µM; as for `Cc1ccc2c(C)ccc(-n3cnnc3SCC(=O)O)c2c1` [Example 2, 2-(4-(4,7-Dimethylnaphthalen-1-yl)-4H-1,2,4-triazol-3-ylthio)acetic acid], greater than 30 µM. In the case of `CCc1ccc(-n2c(SCC(=O)O)nnc2C(F)F)c2ccccc12` [Example 4, 2-(5-(difluoromethyl)-4-(4-ethylnaphthalen-1-yl)-4H-1,2,4-triazol-3-ylthio)acetic acid], the EC50 is 1 to 30 µM. The value for `CC(C)(Sc1nnc(N)n1-c1ccc(C2CC2)c2ccccc12)C(=O)O` [Example 5, 2-(5-amino-4-(4-cyclopropylnaphthalen-1-yl)-4H-1,2,4-triazol-3-ylthio)-2-methylpropanoic acid] was greater than 30 µM; that for `CC(C)(Sc1nnc(C(F)(F)F)n1-c1ccc(C2CC2)c2ccccc12)C(=O)O` [Example 9, 2-(4-(4-Cyclopropylnaphthalen-1-yl)-5-(trifluoromethyl)-4H-1,2,4-triazol-3-ylthio)-2-methylpropanoic acid] was 0.001 to 1 µM; that for `CC(C)(C)OC(=O)C(C)(C)Sc1nnc(Br)n1-c1ccc(C2CC2)c2ccccc12` [Example 101, tert-Butyl 2-(5-bromo-4-(4-cyclopropylnaphthalen-1-yl)-4H-1,2,4-triazol-3-ylthio)-2-methylpropanoate] was greater than 30 µM. The value for `COC(=O)CSc1nnc(Br)n1-c1ccc(C2CC2)c2ccccc12` [Example 102, Methyl 2-(5-bromo-4-(4-cyclopropylnaphthalen-1-yl)-4H-1,2,4-triazol-3-ylthio)acetate] was 1 to 30 µM; that for `CCOC(=O)CSc1nnc(C(F)(F)F)n1-c1c(C)cc(C)c2c1CCCC2` [ethyl 2-(4-(2,4-dimethyl-5,6,7,8-tetrahydronaphthalen-1-yl)-5-(trifluoromethyl)-4H-1,2,4-triazol-3-ylthio)acetate] was greater than 30 µM.

`CCOC(=O)CSc1nncn1-c1ccc(C)c2ccc(C)cc12` [ethyl 2-(4-(4,7-dimethylnaphthalen-1-yl)-4H-1,2,4-triazol-3-ylthio)acetate] displayed an EC50 of 1 to 30 µM. The value for `CCOC(=O)CSc1nnc(C(F)F)n1-c1ccc(CC)c2ccccc12` [ethyl 2-(5-(difluoromethyl)-4-(4-ethylnaphthalen-1-yl)-4H-1,2,4-triazol-3-ylthio)acetate] was greater than 30 µM; that for `CCOC(=O)CSc1nnc(CF)n1-c1ccc(C)c2c1CCCC2` [ethyl 2-(5-(fluoromethyl)-4-(4-methyl-5,6,7,8-tetrahydronaphthalen-1-yl)-4H-1,2,4-triazol-3-ylthio)acetate] was 1 to 30 µM. As to `CCOC(=O)C(C)(C)Sc1nnc(N)n1-c1ccc(C2CC2)c2ccccc12` [ethyl 2-(5-amino-4-(4-cyclopropylnaphthalen-1-yl)-4H-1,2,4-triazol-3-ylthio)-2-methylpropanoate], the EC50 is greater than 30 µM. The value for `CCOC(=O)C(C)(C)Sc1nnc(Br)n1-c1ccc(C2CC2)c2ccccc12` [ethyl 2-(5-bromo-4-(4-cyclopropylnaphthalen-1-yl)-4H-1,2,4-triazol-3-ylthio)-2-methylpropanoate] was 0.001 to 1 µM; that for `CCOC(=O)CCSc1nnc(N)n1-c1ccc(C2CC2)c2ccccc12` [ethyl 3-(5-amino-4-(4-cyclopropylnaphthalen-1-yl)-4H-1,2,4-triazol-3-ylthio)propanoate] was 1 to 30 µM. As for `CCOC(=O)CCSc1nnc(Br)n1-c1ccc(C2CC2)c2ccccc12` [ethyl 3-(5-bromo-4-(4-cyclopropylnaphthalen-1-yl)-4H-1,2,4-triazol-3-ylthio)propanoate], the EC50 was 1 to 30 µM.
